Reference: patent US5618726A, “Biodegradable azo dyes” (priority 1994, dated 1997)
Read-outs that look alike come from different tables or passages of the source.

How the values were obtained:
S. viridosporus T7A [1] = settings: streptomyces viridosporus t7a culture, 336 h
Procedure: (§5) Each Streptomyces species was grown in a cotton-plugged 250 ml flask containing 25 ml of the following medium: 0.2M Tris buffer (pH 7.6), 100 ml; vitamin-free Casamino acids (Difco), 1.0 g; thiamine, 100 μg; biotin, 100 μg; D-glucose, 2 g; deionized water, 900 ml.
(§6) The dyes were filter-sterilized and added at 0.005% (w/v) to the autoclaved basal medium. Alternatively, azo dye stock solutions were sterilized by filtration (pore size 0.2 μm) and added to autoclaved basal medium at concentrations of 50 or 100 ppm. Three replicates of every culture were incubated, and each strain was grown in media supplemented individually with every substrate. Replicate sterile controls also were run in each experiment. […] Three replicates for each strain growth were incubated in only the basal medium as well.
(§7) A one ml sample of culture medium was centrifuged and then diluted 2.5-5.0 fold (actinomycete culture) or 5- to 10-fold (fungal culture) with distilled water. Alternatively, 1.0 ml of fungal supernatant was centrifuged and diluted 5-fold with 10 mM sodium 2,2-dimethylsuccinate buffer (DMS) of pH 4.5. […] To be certain that changes in substrate spectra were not due to pH variations, the effects of pH on the visible absorption of each compound were also assayed within physiological pH range in the culture media. While the spectra of sulfanilic acid (Max abs at 250 nm), vanillic acid (Max abs at 252 nm and 286 nm) and acid yellow 9 (Max abs at 336 nm) were unaffected by pH over the tested pH range, the spectra of several novel azo dyes were changed as evidenced by shifts of their Absmax. Thus, the spectrophotometric assays for the dyes were typically carried out at their isobestic points. […] Spectrophotometric measurements were carried out at the absorbance maxima for azo dyes 16, 17, 18, 19, 31, and 32 (See Table 1 below). […] The compounds were quantified by first developing standard curves of absorbance versus concentrations (0-50 μg) and then comparing measured absorbance values to the standard curves.

[2] = test system: Phanerochaete chrysosporium; assay: Substrate removal / decolorization by P. chrysosporium culture; format: cell-based; settings: for % Decolorization, P. chrysosporium: 14 days
Procedure: Environ. Microbiol., 1981, 42:290-296), with the addition of 75 mg adenine (6-aminopurine) and 27 mg L-phenylalanine-per-liter. This addition accelerated the growth of the fungus without inhibiting ligninase activity. […] […] Cultures were incubated at 37° C. for 7 to 15 days with shaking (250 rpm). Solid agar media were also employed.

S. rochei A14 = format: cell-based; settings: streptomyces rochei a14 culture, 336 h
Description: (§1) Microbiol., 1984, 130:2905-2913.
(§2) Replicate sterile controls also were run in each experiment.

S. diastaticus A12 = format: cell-based; settings: streptomyces diastaticus a12 culture, 336 h
Description: as §1, §2

S. badius 252 = format: cell-based; settings: streptomyces badius 252 culture, 336 h
Description: as §1, §2

S. rochei A10 = format: cell-based; settings: streptomyces rochei a10 culture, 336 h
Description: as §1, §2

S. diastaticus A13 = format: cell-based; settings: streptomyces diastaticus a13 culture, 336 h
Description: as §1, §2

S. chromofuscus A11 = settings: streptomyces chromofuscus a11 culture, 336 h
Procedure: as §1, §2
The Streptomyces were grown on the same media and under the same conditions as previously described. […] Thus, the spectrophotometric assays for substrates 1-12 were carried out at their specific isobastic points. Degradation was calculated as percent of substrates removed from culture broth, considering the evaporation factor (around 10%).

S. chromofuscus A20 = settings: streptomyces chromofuscus a20 culture, 336 h
Procedure: as §5
The dyes were filter-sterilized and added at 0.005% (w/v) to the autoclaved basal medium. Alternatively, azo dye stock solutions were sterilized by filtration (pore size 0.2 μm) and added to autoclaved basal medium at concentrations of 50 or 100 ppm. Three replicates of every culture were incubated, and each strain was grown in media supplemented individually with every substrate. Replicate sterile controls also were run in each experiment. Cultures were incubated at 37° C. for 14 days with shaking (200-250 rpm). Three replicates for each strain growth were incubated in only the basal medium as well.
A one ml sample of culture medium was centrifuged and then diluted 2.5-5.0 fold (actinomycete culture) or 5- to 10-fold (fungal culture) with distilled water. Alternatively, 1.0 ml of fungal supernatant was centrifuged and diluted 5-fold with 10 mM sodium 2,2-dimethylsuccinate buffer (DMS) of pH 4.5. Azo dye substrate present was then measured spectrophotometrically with a Hewlett-Packard 8452 diode array spectrophotometer operated by a PC Vectra computer equipped with HP's MS™-DOS/UV-VIS software. To be certain that changes in substrate spectra were not due to pH variations, the effects of pH on the visible absorption of each compound were also assayed within physiological pH range in the culture media. […] Thus, the spectrophotometric assays for the dyes were typically carried out at their isobestic points. For instance, the spectrophotometric assays were carried out at 450 nm for azo dye 1 and 400 nm for azo dye 2. […] The compounds were quantified by first developing standard curves of absorbance versus concentrations (0-50 μg) and then comparing measured absorbance values to the standard curves.

[3] = test system: Streptomyces chromofuscus; assay: Mineralization of 14C-labeled dyes by shaken cultures; format: cell-based; settings: 21 days' growth, 50 mg/liter
Procedure: (§3) Agitated cultures containing 100,000 to 150,000 dpm of azo dye at a concentration of 200 mg/liter for P. chrysosporium and 50 mg/liter for S. chromofuscus were incubated at 37° C. for 20 days with shaking at 200 rpm. For each mineralization experiment six replicates-per-culture were run for P. chrysosporium and three replicates-per-culture for S. chromofuscus. Each culture flask contained a CO2 trap consisting of a small glass cup connected to the bottom of the rubber stopper. The cup contained 1 ml of 1N NaOH. Samples were taken every 2 days, and after each sampling cultures were flushed with 100% oxygen for 30 s. At the sampling time, the stopper was removed and the NaOH containing trapped CO2 was transferred to a 20-ml scintillation vial, and the cup was then rinsed twice with 1 ml of water. Two ml of rinse water were also transferred to the vial. Finally, 10 ml of Ecolite scintillation cocktail (ICN Biochemicals Inc., Irvine, Calif.) were added to each vial. Vials, after mixing, were stored in the dark for 24 h. The cpm of trapped radioactivity was then determined in a Packard Tri-Carb liquid scintillation analyzer, Model 1500, using the ^14 C quench standards and SIS numbers.
(§4) The removal of radioactivity from the media was determined by measuring the amount of ^14 C label in 0.1 ml of the medium at time 0 and 21 days for each culture. Uninoculated cultures were used as evaporation controls. […] At the end of each mineralization experiment, culture broths were acidified with 5 ml of 1M H3 PO4, fresh 1N NaOH was added to the trap, and the cultures were shaken overnight. No additional releases of ^14 CO2 were observed. The radioactivity assimilated by the cells was measured by solubilizing biomass harvested from each 21-day-old culture in an equal volume of hyamine hydroxide solution. Before solubilization, cells were washed three times with 50 ml of distilled water to remove adsorbed dyes. Ecolite 10 ml was added to the mixture, which was vortexed vigorously. To increase counting efficiency, the solution of biomass-hyamine-scintillation cocktail was further diluted 10 to 20 times with fresh Ecolite before counting.

P. chrysosporium = assay: as above; format: cell-based, Phanerochaete chrysosporium; settings: for Percentage of radioactivity recovered in CO2, P. chrysosporium / Percentage of radioactivity recovered in biomass (cells), P. chrysosporium / Percentage of radioactivity removed from the medium, P. chrysosporium: 21 days' growth, 200 mg/liter
Procedure: as §3
Either a charcoal-containing polyurethane sponge (Bio-Rad Laboratories, Richmond, Calif.) or 2-methoxyethanol was used to trap volatile organic compounds released during mineralization experiments. The sponge (1 cm^3) replaced the 1N NaOH solution in the small glass cap attached to the rubber stopper; other conditions were as before for the ^14 CO2 experiments. For scintillation counting, the charcoal sponges were dissolved in 1 ml of hyamine hydroxide contained in scintillation vials (1M solution in methanol; NEN Research Products, Boston, Mass.) held at 55° C. for 2 h. Ten ml of Ecolite scintillation cocktail were then added and the cpm was measured.
In the second procedure, cultures with CO2 traps were flushed with oxygen for 10 min, and the organic volatiles present were trapped in 10 ml of 2-methoxyethanol mixed with 10 ml Ecolite.
as §4

Mn(II)-peroxidase [4] = assay: Oxidation of dyes by P. chrysosporium Mn(II)-peroxidase; format: biochemical, Phanerochaete chrysosporium; settings: for Oxidation by manganese peroxidase: 15-minute incubation period
ligninase = assay: Oxidation of dyes by P. chrysosporium ligninase (crude preparation); format: biochemical, Phanerochaete chrysosporium; settings: for Oxidation / decolorization by ligninase: pH3, 0.2 mM hydrogen peroxide, 15-minute incubation
In short: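 Crude P. chrysosporium ligninase oxidation of dyes, assayed by a previously reported method; conditions as for acid yellow 9, readings every 30 s for up to 15 minutes.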

Streptomyces spp. = assay: Decolorization of naphthol azo dyes by Streptomyces spp.; format: cell-based
Description: as §1, §2

S. rochei A4 = assay: Substrate removal by Streptomyces culture; format: cell-based, Streptomyces rochei; settings: growth period 14 days
Description: as §2

S. viridosporus T7A [5] = assay: Substrate removal by Streptomyces culture; settings: growth period 14 days
Procedure: as §5, §6, §7

[6] = test system: S. chromofuscus A11 extracellular peroxidase; assay: Oxidation of azo dyes by S. chromofuscus A11 crude enzyme preparation; format: biochemical, Streptomyces chromofuscus A11; settings: pH 8, 37° C., H2O2
In short: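 Enzyme from 48 h S. chromofuscus A11 culture supernatant, concentrated, ammonium sulfate-precipitated, dialyzed in 20 mM HEPES pH 8; yellow Sephadex G-25 fraction used. Reaction started with 100 μl 50 mM H2O2, followed 1 min at 37° C; controls without H2O2 or with 25 μM KCN.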

Mn(II)-peroxidase [7] = assay: Oxidation of dyes by P. chrysosporium Mn(II)-peroxidase; format: biochemical, Phanerochaete chrysosporium; settings: crude enzyme, conditions specific for Mn(II)-peroxidase
[8] = target: T1, horseradish peroxidase type II (Armoracia rusticana, UniProt P00433); assay: Oxidation of azo dyes by horseradish peroxidase preparation; format: biochemical; settings: pH 8, 37° C., H2O2
T1 sequence (P00433 31-338): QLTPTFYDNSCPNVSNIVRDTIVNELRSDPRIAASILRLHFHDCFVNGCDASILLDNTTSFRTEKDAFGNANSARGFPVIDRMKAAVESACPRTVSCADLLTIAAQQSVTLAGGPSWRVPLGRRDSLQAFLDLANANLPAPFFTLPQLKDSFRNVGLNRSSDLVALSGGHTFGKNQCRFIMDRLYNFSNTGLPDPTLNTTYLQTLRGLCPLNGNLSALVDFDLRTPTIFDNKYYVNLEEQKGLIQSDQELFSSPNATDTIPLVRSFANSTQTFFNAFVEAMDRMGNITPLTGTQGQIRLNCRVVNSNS
Procedure: The reaction was started with the addition of 100 μl of 50 mM H2 O2 and was followed for 1 min at 37° C. Controls were run with no addition of H2 O2 or with the addition of the hemeperoxidase inhibitor KCN (final concentration 25 μM).

[9] = p. chrysosporium culture, 168 h

## COc1cc(N=Nc2ccc(N=Nc3ccc(S(=O)(=O)O)cc3)cc2S(=O)(=O)O)ccc1O [Azo dye 1, 4-(3-methoxy-4-hydroxyphenylazo)-azobenzene-3,4'-disulfonic acid]
S. viridosporus T7A [1]
  Percent substrate removed, S. viridosporus T7A: 1%
[2]; growth period 7 days
  Percent substrate removed, P. chrysosporium: 93%
S. rochei A14
  Percent substrate removed, S. rochei A14: 43%
S. diastaticus A12
  Percent substrate removed, S. diastaticus A12: 27%
S. badius 252
  Percent substrate removed, S. badius 252: 9%
S. rochei A10
  Percent substrate removed, S. rochei A10: 51%
S. diastaticus A13
  Percent substrate removed, S. diastaticus A13: 15%
S. chromofuscus A11
  Percent substrate removed, S. chromofuscus A11: 56%
S. chromofuscus A20
  Percent substrate removed, S. chromofuscus A20: 1%

## COc1cc(N=Nc2ccc(S(=O)(=O)O)cc2)ccc1O [Azo dye 2, 3-methoxy-4-hydroxy-azobenzene-4'-sulfonic acid]
S. viridosporus T7A [1]
  Percent substrate removed, S. viridosporus T7A: 9%
[2]; growth period 7 days
  Percent substrate removed, P. chrysosporium: 94%
S. rochei A14
  Percent substrate removed, S. rochei A14: 72%
S. diastaticus A12
  Percent substrate removed, S. diastaticus A12: 30%
S. badius 252
  Percent substrate removed, S. badius 252: 18%
S. rochei A10
  Percent substrate removed, S. rochei A10: 74%
S. diastaticus A13
  Percent substrate removed, S. diastaticus A13: 21%
S. chromofuscus A11
  Percent substrate removed, S. chromofuscus A11: 89%
S. chromofuscus A20
  Percent substrate removed, S. chromofuscus A20: 11%

## Nc1ccc(N=Nc2ccc(S(=O)(=O)O)cc2)cc1S(=O)(=O)O [Azo dye 18, 4-amino-1,1'-azobenzene-3,4'-disulfonic acid]
[3]
  Percentage of radioactivity recovered in CO2, Streptomyces chromofuscus: 0.0%
  Percentage of radioactivity recovered in biomass (cells), Streptomyces chromofuscus: 0.0%
  Percentage of radioactivity removed from the medium, Streptomyces chromofuscus: 0.0%
[2]; [9]
  Percent substrate removed, P. chrysosporium: 79%
P. chrysosporium
  Percentage of radioactivity recovered in CO2, P. chrysosporium: 26.9%
  Percentage of radioactivity recovered in biomass (cells), P. chrysosporium: 2.3%
  Percentage of radioactivity removed from the medium, P. chrysosporium: 33.0%
Mn(II)-peroxidase [4]
  Oxidation by manganese peroxidase: not detected
ligninase; out of 10 micrograms, 15 minutes, pH3, 0.6 units of enzyme
  Amount of dye decolorized by ligninase: about 3 micrograms

## O=S(=O)(O)c1ccc2c(N=Nc3ccccc3)c(O)ccc2c1 [Azo dye 19, 1-phenylazo-2-hydroxynaphthalene-6-sulfonic acid]
Streptomyces spp.
  Decolorization by Streptomyces spp.: not

## O=S(=O)(O)c1ccc(N=Nc2c(O)ccc3ccccc23)cc1 [Azo dye 31, 4-(2-hydroxy-1-naphthylazo)benzenesulfonic acid]
Streptomyces spp.
  Decolorization by Streptomyces spp.: not

## Nc1ccc(S(=O)(=O)O)cc1 [Sulfanilic acid, 4-Amino-[U-^14 C]benzenesulfonic acid]
[3]
  Percentage of radioactivity recovered in CO2, Streptomyces chromofuscus: 0.0%
  Percentage of radioactivity recovered in biomass (cells), Streptomyces chromofuscus: 0.0%
  Percentage of radioactivity removed from the medium, Streptomyces chromofuscus: 0.0%
[2]; [9]
  Percent substrate removed, P. chrysosporium: 68%
P. chrysosporium
  Percentage of radioactivity recovered in biomass (cells), P. chrysosporium: 1.3%
  Percentage of radioactivity removed from the medium, P. chrysosporium: 25.0%
P. chrysosporium; listed as Sulfanilic Acid
  Percentage of radioactivity recovered in CO2, P. chrysosporium: 17.2%
P. chrysosporium; listed as sulfanilic acid
  Percentage of radioactivity recovered in CO2, P. chrysosporium: 17%
P. chrysosporium; P. chrysosporium
  Start of mineralization in the fungal culture: tenth day
Mn(II)-peroxidase [4]
  Oxidation by manganese peroxidase: not detected
ligninase
  Oxidation / decolorization by ligninase: transformed slowly

## COc1cc(C(=O)O)ccc1O [Vanillic acid, 4-hydroxy-3-methoxybenzoic acid, reference compound]
S. rochei A4
  Percent substrate removed, S. rochei A4: 100%
S. rochei A14
  Percent substrate removed, S. rochei A14: 72%
S. diastaticus A12
  Percent substrate removed, S. diastaticus A12: 58%
S. badius 252
  Percent substrate removed, S. badius 252: 7%
S. rochei A10
  Percent substrate removed, S. rochei A10: 91%
S. diastaticus A13
  Percent substrate removed, S. diastaticus A13: 34%
S. chromofuscus A11
  Percent substrate removed, S. chromofuscus A11: 100%
S. chromofuscus A20
  Percent substrate removed, S. chromofuscus A20: 5%
S. viridosporus T7A [5]
  Percent substrate removed, S. viridosporus T7A: 3%

## COc1cc(N=Nc2ccc(N=Nc3ccc(S(=O)(=O)O)cc3)cc2S(=O)(=O)O)ccc1O [compound 1]
[6]
  Oxidation rate of azo dyes, S. chromofuscus peroxidase: 1.78 μmoles per minute per ml
[2]; growth period of seven days, starting dye 150-200 ppm (FIG. 3), 10080 min
  Degradation by Phanerochaete fungus: 90%
[2]; initial concn 150 ppm
  % Decolorization, P. chrysosporium: 99%
[2]; initial concn 300 ppm
  % Decolorization, P. chrysosporium: 62%
Mn(II)-peroxidase [7]
  Oxidation rate of azo dyes, P. chrysosporium Mn-peroxidase: 3.06 μmoles per minute per ml
Mn(II)-peroxidase [4]; one hour incubation
  Degradation by manganese peroxidase (HPLC, words): almost completely degraded
ligninase; crude enzyme, conditions specific for ligninase
  Oxidation rate of azo dyes, P. chrysosporium Ligninase: 0.44 μmoles per minute per ml
ligninase
  Oxidation / decolorization by ligninase: not detected
[8]
  Oxidation rate of azo dyes, Horseradish peroxidase: 8.24 μmoles per minute per ml
